Consider 49 molecules from US20170273985A1, “TRICYCLIC DERIVATIVE” (Sunovion Pharmaceuticals Inc., priority 2014, published 2017).

SMILES strings stand for the structures. pIC50: −log10 of the molar value.

This test has as its target PDE1B (Homo sapiens, UniProt Q01064). Briefly: In vitro HTRF PDE1 inhibition assay (PDE1B). Particulars: Table 22. Type of test: biochemical. The source says:
An exemplary procedure for the in vitro Homogenous Time Resolved Fluorescence assay, which can be used to determine the inhibitory action of compounds of the invention toward PDE1 or its isoforms, follows. The HTRF PDE1 assay utilized the HTRF (Homogenous Time Resolved Fluorescence) technology, which is based on the competition between unlabeled cyclic nucleotide and cyclic nucleotide labeled with XL665 for the binding to cyclic nucleotide-specific antibody labeled with cryptate. The HTRF signal is thus inversely proportional to the concentration of cyclic nucleotide being measured. Since phosphodiesterases break down cyclic nucleotides the HTRF signal was used to determine PDE activity. The Cisbio cGMP HTRF assay kit (Cat no: 62GM2PEC) was utilized. Cyclic GMP was diluted to 200 nM in HTRF assay buffer (1 mM CaCl2, 10 mM MgCl2, 10 mM Tris-HCl, 0.1% BSA, pH 7.4). 10 μl of compound or DMSO was diluted in 200 nM cyclic GMP solution and added to wells of a 96 well white plate to give 100 nM cyclic GMP in 1% DMSO final concentration. PDE (1A3, 1B or IC) was diluted to 2× working concentration in HTRF assay buffer with 2 μg/ml calmodulin, and 10 μl was added to initiate the reaction. The plate was then incubated for 45 minutes at 37° C. d2-Labelled cyclic GMP and anti-cGMP cryptate were diluted in 50 mM phosphate buffer, 0.8 M KF, 1% Triton X100, 0.2% BSA, pH 7.0. Following incubation 10 μl d2-cGMP, then 10 μl anti cGMP cryptate were added to each well and the plate was incubated for 45 minutes at room temperature. The plate was then read on Perkin Elmer Victor at 2 different FRET readings ex/emm 340 nm/665 nm and 340 nm/615 nm. Compounds having an IC50 of <1 μM, are denoted as +++. Compounds having an IC50 of 1−10 μM, are denoted as ++. Compounds having an IC50 of 10-100 μM, are denoted as +.
In general terms: In TR-FRET formats the signal depends on donor and acceptor labels being close together.
Broadly, the pIC50 is the IC50 on a negative log10 scale, so that one unit is a factor of ten. Read a low pIC50 as a large IC50. As to `CC(C)c1ncc2c(=O)n3c(nn12)N(C)[C@@H](c1ccc(Cl)cn1)C3` [Example 84, (R)-2-(5-Chloropyridin-2-yl)-8-isopropyl-1-methyl-2,3-dihydrodiimidazo[2,1-c:1′,5′-f][1,2,4]triazin-5(1H)-one], the pIC50 is above 6.00.

Turning to `CC(C)c1ncc2c(=O)n3c(nn12)N(C)[C@H](c1ccc(Cl)cn1)C3` [Example 85, (S)-2-(5-Chloropyridin-2-yl)-8-isopropyl-1-methyl-2,3-dihydrodiimidazo[2,1-c:1′,5′-f][1,2,4]triazin-5(1H)-one], the pIC50 was above 6.00.

Molecule `COc1ccc(C2Cn3c(nn4c(C5CCOCC5)ncc4c3=O)N2C)cc1` (stereo not shown) [Example 86] gave a pIC50 above 6.00.

For the molecule `COc1ccc(C2Cn3c(nn4c(C5CCOCC5)ncc4c3=O)N2C)cc1` (stereo not shown) [Example 87], the pIC50 was 5.00 to 6.00.

As for `CCc1ccc(C2Cn3c(nn4c(C5CCOCC5)ncc4c3=O)N2CC)cn1` (stereo not shown) [Example 88], the pIC50 was above 6.00.

`CCc1ccc([C@@H]2Cn3c(nn4c(C5CCOCC5)ncc4c3=O)N2CC)cn1` [Example 89] showed a pIC50 of 5.00 to 6.00.

With `CCCN1c2nn3c(C4CCOCC4)ncc3c(=O)n2C[C@@H]1c1ccc(CC)nc1` [Example 90], the pIC50 was above 6.00.

`CCCN1c2nn3c(C4CCOCC4)ncc3c(=O)n2C[C@H]1c1ccc(CC)nc1` [Example 91] showed a pIC50 of 5.00 to 6.00.

For the molecule `CCc1ccc([C@H]2Cn3c(nn4c(C5CCOCC5)ncc4c3=O)N2CC(C)C)cn1` [Example 92], the pIC50 is 5.00 to 6.00.

`CCc1ccc([C@@H]2Cn3c(nn4c(C5CCOCC5)ncc4c3=O)N2CC(C)C)cn1` [Example 93] gave a pIC50 of 4.00 to 5.00.

In turn, `CCc1ccc(C2Cn3c(nn4c(C(C)C)ncc4c3=O)N2CC)cn1` (stereo not shown) [Example 95] showed a pIC50 of 5.00 to 6.00.

In turn, `CCCN1c2nn3c(C(C)C)ncc3c(=O)n2C[C@@H]1c1ccc(CC)nc1` [Example 96] gave a pIC50 of 5.00 to 6.00.

The molecule `CCCN1c2nn3c(C(C)C)ncc3c(=O)n2CC1c1ccc(CC)nc1` (stereo not shown) [Example 97] gave a pIC50 of 5.00 to 6.00.

`CCc1ccc(C2Cn3c(nn4c(C(C)C)ncc4c3=O)N2CC(C)C)cn1` (stereo not shown) [Example 98]: the pIC50 is 5.00 to 6.00.

In turn, `CCc1ccc(C2Cn3c(nn4c(C(C)C)ncc4c3=O)N2CC(C)C)cn1` (stereo not shown) [Example 99] gave a pIC50 of 5.00 to 6.00.

In the case of `CC(C)c1ncc2c(=O)n3c(nn12)N(CCCCO)CC3` [Example 100, 1-(4-Hydroxybutyl)-8-isopropyl-2,3-dihydro-1H,5H-diimidazo[2,1-c:5′,1′-f][1,2,4]triazin-5-one], the pIC50 is above 6.00.

As to `CC(C)c1ncc2c(=O)n3c(nn12)N(CCCCCO)CCC3` [Example 101, 1-(5-Hydroxypentyl)-9-isopropyl-1,2,3,4-tetrahydro-6H-imidazo[5,1-f]pyrimido[2,1-c][1,2,4]triazin-6-one], the pIC50 is above 6.00.

In turn, `CC(C)c1ncc2c(=O)n3c(nn12)N(CCCCCO)CC3` [Example 102] had a pIC50 above 6.00.

In turn, `CC(C)c1ncc2c(=O)n3c(nn12)N(CCCCCCO)CC3` [Example 103] had a negative logarithm of the IC50 (pIC50) above 6.00.

With `CC(C)c1ncc2c(=O)n3c(nn12)N(CCOCCO)CC3` [Example 104], the pIC50 is above 6.00.

With `CC(C)c1ncc2c(=O)n3c(nn12)N(CCCCO)CCC3` [Example 105], the pIC50 is above 6.00.

Regarding `CC(C)c1ncc2c(=O)n3c(nn12)N(CCOCCO)CCC3` [Example 107], the pIC50 is 5.00 to 6.00.

As for `O=c1c2cnc(C3CCOCC3)n2nc2n1CCN2CCCCCO` [Example 108], the pIC50 is above 6.00.

`O=c1c2cnc(C3CCOCC3)n2nc2n1CCCN2CCCCCO` [Example 109] had a pIC50 above 6.00.

For `CC(C)c1ncc2c(=O)n3c(nn12)N(CCCC(O)CO)CC3` (stereo not shown) [Example 110, 1-(4,5-Dihydroxypentyl)-8-isopropyl-2,3-dihydro-1H,5H-diimidazo[2,1-c:5′,1′-f][1,2,4]triazin-5-one], the pIC50 was above 6.00.

In the case of `CC(C)c1ncc2c(=O)n3c(nn12)N(CCCC(O)CO)CCC3` (stereo not shown) [Example 111, 1-(4,5-Dihydroxypentyl)-9-isopropyl-1,2,3,4-tetrahydro-6H-imidazo[51-f]pyrimido[2,1-c][1,2,4]triazin-6-one], the pIC50 is above 6.00.

Regarding `CC(C)c1ncc2c(=O)n3c(nn12)N(CC1CCN(C)CC1)CCC3` [Example 112, 9-Isopropyl-1-[(1-methyl-4-piperidinyl)methyl]-1,2,3,4-tetrahydro-6H-imidazo[5,1-f]pyrimido[2,1-c][1,2,4]triazin-6-one], the pIC50 was 5.00 to 6.00.

As to `CC(C)c1ncc2c(=O)n3c(nn12)N(CCC1CCNCC1)CCC3` [Example 113, 9-Isopropyl-1-[2-(4-piperidinyl)ethyl]-1,2,3,4-tetrahydro-6H-imidazo[5,1-f]pyrimido[2,1-c][1,2,4]triazin-6-one], the pIC50 was 5.00 to 6.00.

As to `CC(C)c1ncc2c(=O)n3c(nn12)N(CCC1CCN(C)CC1)CCC3` [Example 114, 9-Isopropyl-1-[2-(1-methyl-4-piperidinyl)ethyl]-1,2,3,4-tetrahydro-6H-imidazo[5,1-f]pyrimido[2,1-c][1,2,4]triazin-6-one], the pIC50 was above 6.00.

Molecule `CC(C)c1ncc2c(=O)n3c(nn12)N(CCc1cccc(C#N)c1)CCC3` [Example 115, 3-(2-(9-Isopropyl-6-oxo-2,3,4,6-tetrahydro-1H-imidazo[1,5-f]pyrimido[2,1-c][1,2,4]triazin-1-yl)ethyl)benzonitrile] gave a pIC50 above 6.00.

`N#Cc1ccc(CCN2CCCn3c2nn2c(C4CCOCC4)ncc2c3=O)cc1` [Example 116, 4-{2-[6-Oxo-9-(tetrahydro-2H-pyran-4-yl)-3,4-dihydro-6H-imidazo[5,1-f]pyrimido[2,1-c][1,2,4]triazin-1(2H)-yl]ethyl}benzonitrile]: the pIC50 was above 6.00.

`N#Cc1cccc(CCN2CCCn3c2nn2c(C4CCOCC4)ncc2c3=O)c1` [Example 117] had a pIC50 of 4.00 to 5.00.

For `N#Cc1cccc(CCCN2CCCn3c2nn2c(C4CCOCC4)ncc2c3=O)c1` [Example 118], the pIC50 was above 6.00.

The molecule `N#Cc1ccc(CCCN2CCCn3c2nn2c(C4CCOCC4)ncc2c3=O)cc1` [Example 119] had a pIC50 above 6.00.

Molecule `CC1CN(CCCc2ccccn2)c2nn3c(C(C)C)ncc3c(=O)n2C1` (stereo not shown) [Example 121] showed a pIC50 above 6.00.

For the molecule `CC(C)c1ncc2c(=O)n3c(nn12)N(CCCc1cccc(F)c1)CCC3` [Example 122], the pIC50 was above 6.00.

`CC(C)c1ncc2c(=O)n3c(nn12)N(C(=O)CC1CCOCC1)CCC3` [Example 123, 9-Isopropyl-1-(tetrahydro-2H-pyran-4-ylacetyl)-1,2,3,4-tetrahydro-6H-imidazo[5,1-f]pyrimido[2,1-c][1,2,4]triazin-6-one] had a pIC50 of 5.00 to 6.00.

With `CC(C)c1ncc2c(=O)n3c(nn12)N(C(=O)CCC1CCOCC1)CCC3` [Example 124, 9-Isopropyl-1-(3-(tetrahydro-2H-pyran-4-yl)propanoyl)-3,4-dihydro-1H-imidazo[1,5-f]pyrimido[2,1-c][1,2,4]triazin-6(2H)-one], the pIC50 is 4.00 to 5.00.

`CC(C)c1ncc2c(=O)n3c(nn12)N(C(=O)CCN1CCOCC1)CCC3` [Example 125, 9-Isopropyl-1-(3-morpholinopropanoyl)-3,4-dihydro-1H-imidazo[1,5-f]pyrimido[2,1-c][1,2,4]triazin-6(2H)-one] had a pIC50 of 5.00 to 6.00.

Consider `CC(C)c1ncc2c(=O)n3c(nn12)OC(c1ccccc1)CC3` (stereo not shown) [Example 126, 9-Isopropyl-2-phenyl-3,4-dihydroimidazo[5,1-f][1,3]oxazino[2,3-c][1,2,4]triazin-6(2H)-one], for which the pIC50 was above 6.00.

For the molecule `CC(C)c1ncc2c(=O)n3c(nn12)OC(c1ccc(Cl)cc1)CC3` (stereo not shown) [Example 127], the pIC50 was above 6.00.

On to `COc1cccc(C2CCn3c(nn4c(C(C)C)ncc4c3=O)O2)c1` (stereo not shown) [Example 128], for which the pIC50 is 5.00 to 6.00.

`COc1ccc(C2CCn3c(nn4c(C(C)C)ncc4c3=O)O2)cc1` (stereo not shown) [Example 129]: the pIC50 was above 6.00.

The molecule `CC(C)c1ncc2c(=O)n3c(nn12)OC(Cc1ccccc1)CC3` (stereo not shown) [Example 130] showed a pIC50 above 6.00.

The molecule `COc1ccc(CC2CCn3c(nn4c(C(C)C)ncc4c3=O)O2)cc1` (stereo not shown) [Example 131] gave a pIC50 above 6.00.

For `CC(C)c1ncc2c(=O)n3c(nn12)OC(Cc1ccc(Cl)cc1)CC3` (stereo not shown) [Example 132], the pIC50 is above 6.00.

Regarding `O=c1c2cnc(C3CCCC3)n2nc2n1CCC(c1ccccc1)C2` (stereo not shown) [Example 134, 3-Cyclopentyl-7-phenyl-8,9-dihydro-6H-imidazo[5,1-f]pyrido[2,1-c][1,2,4]triazin-11(7H)-one], the pIC50 is 5.00 to 6.00.

The molecule `COc1cccc(C2CCn3c(nn4c(C5CCCC5)ncc4c3=O)C2)c1` (stereo not shown) [Example 135] had a pIC50 of 5.00 to 6.00.

The molecule `COc1ccc(C2CCn3c(nn4c(C5CCCC5)ncc4c3=O)C2)cc1` (stereo not shown) [Example 136] gave a pIC50 of 5.00 to 6.00.
